For experiment [1], the target named is T1, CDK4/cyclinD3(h) (Homo sapiens, UniProt P11802).
T1 construct: purchased Eurofins, Dundee, Scotland
As to the kind of experiment: radiometric protein kinase assay, CDK4. It counts as biochemical. The note with it: enzyme inhibition, ATP 20 μM. How it is done: (§1) Enzymatic biochemical activities were evaluated in radiometric protein kinase assays (Eurofins, Dundee, Scotland). Kinases are incubated with buffer, substrate and [γ-^33P]-ATP (specific activity approx. 500 cpm/pmol, concentration as required). The reaction is initiated by the addition of the MgATP mix. After incubation for 40 minutes at room temperature, the reaction is stopped by the addition of 3% phosphoric acid solution. 10 μL of the reaction is then spotted onto a P30 filtermat and washed three times for 5 minutes in 75 mM phosphoric acid and once in methanol prior to drying and scintillation counting.
(§2) All compounds are prepared to 50× final assay concentration in 100% DMSO. Positive control wells contain all components of the reaction with 2% DMSO. Blank wells contain all components of the reaction, with a reference inhibitor replacing the compound of interest. Each kinase is assigned a standard assay concentration of ATP within 20 μM of its apparent KM. Compounds were screened at 1 μM in duplicate or tested at 10 concentrations at half log dilution starting from 10 μM in singlicate. Dose response curves were fitted with four parameter logistic curve to obtain IC50 values. The average coefficient of variation (CV) of the conducted assay is 4.4%.

In experiment [2] the target is T2, CDK6/cyclinD3(h) (Homo sapiens, UniProt Q00534).
T2 construct: purchased Eurofins, Dundee, Scotland
T2 sequence (Q00534 whole entry): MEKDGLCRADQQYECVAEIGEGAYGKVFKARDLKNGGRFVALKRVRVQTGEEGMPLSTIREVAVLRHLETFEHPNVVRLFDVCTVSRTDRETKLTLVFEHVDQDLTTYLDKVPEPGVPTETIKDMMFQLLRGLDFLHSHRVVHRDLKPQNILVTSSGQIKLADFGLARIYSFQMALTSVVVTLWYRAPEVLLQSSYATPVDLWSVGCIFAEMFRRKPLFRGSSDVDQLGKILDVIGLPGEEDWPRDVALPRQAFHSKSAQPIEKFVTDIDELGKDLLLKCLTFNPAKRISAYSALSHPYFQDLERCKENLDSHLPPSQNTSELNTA
T2 sequence (P30281 whole entry partner): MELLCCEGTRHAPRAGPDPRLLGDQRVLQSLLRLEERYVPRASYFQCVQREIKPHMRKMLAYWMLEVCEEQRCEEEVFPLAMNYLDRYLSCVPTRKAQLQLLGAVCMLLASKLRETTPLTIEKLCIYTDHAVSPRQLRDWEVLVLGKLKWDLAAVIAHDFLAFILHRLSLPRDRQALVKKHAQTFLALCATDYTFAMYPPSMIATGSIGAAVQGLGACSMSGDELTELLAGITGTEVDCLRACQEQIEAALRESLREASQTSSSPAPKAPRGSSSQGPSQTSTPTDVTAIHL
As to the kind of experiment: radiometric protein kinase assay, CDK6. It counts as biochemical. The note with it: enzyme inhibition, ATP 20 μM. On the procedure:
as §1, §2

For experiment [3], the system named is MDM2 alternate splicing in Rh-18 cells. Nature of the experiment: Rh-18 MDM2 RT-PCR gel-based assay (orthogonal secondary assay). It counts as cell-based. The note with it: 10 μM, 8 h. How it is done:
These hits were then subjected to a confirmatory assay in the Rh-18 MDM2 RT-PCR gel-based assay at a concentration of 10 μM.
Referring to FIG. 6, cells were exposed to 0.5% DMSO, 0.2 μM sudemycin D6 or […] CGP-74514A for 8 h. Total RNA was extracted by RNeasy Mini Kit (Qiagen). High capacity RNA-to-cDNA kit (Life technologies) was used to convert the RNA to cDNA.
Referring to FIG. 7, cells were exposed to 0.5% DMSO (lane 1), 1 μM sudemycin D6 (lane 2), 10 μM Compound 14 (lane 3), and 10 μM Compound 15 (lane 4) for 8 h. The total RNA was extracted by RNeasy Mini Kit (Qiagen). High capacity RNA-to-cDNA kit (Life technologies) was used to convert the RNA to cDNA. […] Ubiquitin transcripts (165 bp) in the same cells were used as a control (Fan et al. (2011) ACS Chem. Biol. 6: 582-9).

Experiment [4] has as its target T3, CLK1(h) (Homo sapiens, UniProt P49759).
T3 construct: purchased Eurofins, Dundee, Scotland
Nature of the experiment: radiometric protein kinase assay, CLK1. It counts as biochemical. On the procedure:
as §1, §2

Experiment [5] concerns the target T4, CDK1/cyclinB(h) (Homo sapiens, UniProt P06493).
T4 construct: purchased Eurofins, Dundee, Scotland
As to the kind of experiment: radiometric protein kinase assay, CDK1. The note with it: enzyme inhibition, ATP 45 μM. It counts as biochemical. On the procedure:
as §1, §2

Experiment [6] addresses T5, CLK4(h) (Homo sapiens, UniProt Q9HAZ1).
T5 construct: purchased Eurofins, Dundee, Scotland
As to the kind of experiment: radiometric protein kinase assay, CLK4. It counts as biochemical. The note with it: enzyme inhibition, ATP 10 μM. On the procedure:
as §1, §2

The target in experiment [7] is T6, CLK3(h) (Homo sapiens, UniProt P49761).
T6 construct: purchased Eurofins, Dundee, Scotland
T6 sequence (P49761 whole entry): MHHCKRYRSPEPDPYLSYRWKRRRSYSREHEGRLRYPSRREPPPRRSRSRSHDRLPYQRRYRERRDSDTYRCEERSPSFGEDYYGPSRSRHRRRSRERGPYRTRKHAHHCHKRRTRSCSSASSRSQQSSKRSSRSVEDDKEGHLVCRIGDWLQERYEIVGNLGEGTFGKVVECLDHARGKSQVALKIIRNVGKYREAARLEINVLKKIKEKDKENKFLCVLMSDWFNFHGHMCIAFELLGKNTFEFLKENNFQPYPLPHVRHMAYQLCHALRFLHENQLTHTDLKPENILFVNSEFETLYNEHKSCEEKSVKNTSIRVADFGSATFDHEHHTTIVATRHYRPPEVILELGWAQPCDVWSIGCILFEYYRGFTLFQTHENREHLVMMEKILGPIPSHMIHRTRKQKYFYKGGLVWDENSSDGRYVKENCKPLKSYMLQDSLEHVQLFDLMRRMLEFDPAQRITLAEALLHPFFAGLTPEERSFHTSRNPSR
Nature of the experiment: radiometric protein kinase assay, CLK3. It counts as biochemical. On the procedure: as §1, §2

Experiment [8] deals with T7, CLK2(h) (Homo sapiens, UniProt P49760).
T7 construct: purchased Eurofins, Dundee, Scotland
T7 sequence (P49760 whole entry): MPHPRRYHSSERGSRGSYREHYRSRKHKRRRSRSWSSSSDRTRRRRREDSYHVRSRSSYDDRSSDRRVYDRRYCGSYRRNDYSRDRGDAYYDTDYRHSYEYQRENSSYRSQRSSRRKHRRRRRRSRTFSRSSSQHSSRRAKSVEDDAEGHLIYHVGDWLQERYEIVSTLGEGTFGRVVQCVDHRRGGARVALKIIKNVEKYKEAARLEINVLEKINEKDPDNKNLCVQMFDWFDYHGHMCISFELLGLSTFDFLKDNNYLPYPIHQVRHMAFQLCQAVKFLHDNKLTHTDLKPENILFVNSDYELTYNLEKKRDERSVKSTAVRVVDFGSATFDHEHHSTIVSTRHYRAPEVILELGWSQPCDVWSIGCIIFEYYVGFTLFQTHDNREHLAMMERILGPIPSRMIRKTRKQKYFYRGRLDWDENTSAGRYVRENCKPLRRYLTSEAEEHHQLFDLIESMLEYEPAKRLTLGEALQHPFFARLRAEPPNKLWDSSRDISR
Nature of the experiment: radiometric protein kinase assay, CLK2. It counts as biochemical. The note with it: enzyme inhibition, ATP 10 μM. On the procedure: as §1, §2

Experiment [9] deals with SK-MEL-2/Luc-MDM2 cells (MDM2-Luc exon-skipping reporter). Nature of the experiment: cell-based MDM2-Luc exon-skipping reporter assay. The note with it: for MDM2/Luc: luciferase activation vs DMSO control, average of three experiments.
Where [10] appears, read: enzyme inhibition, radiometric, ATP 10 μM, read-out: IC50 (nM) CLK1.

Like-named read-outs stand apart in the source and are kept apart here. Some results are limits rather than exact numbers.

The term IC50 denotes the concentration at which inhibition is half-maximal.

T4 sequence (P06493 whole entry): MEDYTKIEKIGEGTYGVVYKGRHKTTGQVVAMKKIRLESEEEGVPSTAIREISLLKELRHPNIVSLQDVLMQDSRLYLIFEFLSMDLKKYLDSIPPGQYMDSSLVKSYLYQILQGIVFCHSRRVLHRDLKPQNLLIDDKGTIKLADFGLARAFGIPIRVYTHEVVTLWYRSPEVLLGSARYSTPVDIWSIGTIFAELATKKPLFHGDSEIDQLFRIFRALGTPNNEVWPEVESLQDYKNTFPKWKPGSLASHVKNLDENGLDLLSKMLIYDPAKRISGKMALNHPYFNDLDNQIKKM
T4 sequence (P14635 whole entry partner): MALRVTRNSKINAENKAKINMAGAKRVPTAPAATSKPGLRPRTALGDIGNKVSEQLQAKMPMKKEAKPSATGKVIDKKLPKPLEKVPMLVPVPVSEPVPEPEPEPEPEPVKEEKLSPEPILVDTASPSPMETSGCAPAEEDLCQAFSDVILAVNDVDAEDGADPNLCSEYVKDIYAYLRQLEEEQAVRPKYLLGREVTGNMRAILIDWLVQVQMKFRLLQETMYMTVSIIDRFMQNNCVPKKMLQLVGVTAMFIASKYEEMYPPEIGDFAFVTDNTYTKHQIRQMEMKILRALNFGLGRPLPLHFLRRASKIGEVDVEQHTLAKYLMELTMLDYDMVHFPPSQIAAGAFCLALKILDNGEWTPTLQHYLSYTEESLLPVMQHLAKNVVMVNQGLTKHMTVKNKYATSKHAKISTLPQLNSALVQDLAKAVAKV
T3 sequence (P49759 whole entry): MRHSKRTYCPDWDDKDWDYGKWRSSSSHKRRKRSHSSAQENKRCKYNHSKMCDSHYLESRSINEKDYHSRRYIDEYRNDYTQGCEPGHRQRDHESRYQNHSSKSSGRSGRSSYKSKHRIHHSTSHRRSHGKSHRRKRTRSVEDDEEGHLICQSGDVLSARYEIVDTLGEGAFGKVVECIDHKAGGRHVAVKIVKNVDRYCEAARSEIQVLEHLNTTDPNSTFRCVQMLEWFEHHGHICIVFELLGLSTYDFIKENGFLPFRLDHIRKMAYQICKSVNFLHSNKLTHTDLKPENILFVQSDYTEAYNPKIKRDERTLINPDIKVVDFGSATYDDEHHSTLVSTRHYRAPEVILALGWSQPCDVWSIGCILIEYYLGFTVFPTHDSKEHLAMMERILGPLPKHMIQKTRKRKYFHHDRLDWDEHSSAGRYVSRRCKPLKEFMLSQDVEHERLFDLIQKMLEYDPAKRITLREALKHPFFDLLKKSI
T1 sequence (P11802 whole entry): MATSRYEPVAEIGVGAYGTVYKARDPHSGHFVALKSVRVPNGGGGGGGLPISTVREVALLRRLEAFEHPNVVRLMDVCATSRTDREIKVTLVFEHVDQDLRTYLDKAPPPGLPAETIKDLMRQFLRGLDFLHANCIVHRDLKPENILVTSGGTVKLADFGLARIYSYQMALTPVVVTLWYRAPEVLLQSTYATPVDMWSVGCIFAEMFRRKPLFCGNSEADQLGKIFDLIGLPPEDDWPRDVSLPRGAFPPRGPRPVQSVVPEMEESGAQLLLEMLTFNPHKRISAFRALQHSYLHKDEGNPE
T1 sequence (P30281 whole entry partner): as the sequence (P30281 whole entry partner) above
T5 sequence (Q9HAZ1 whole entry): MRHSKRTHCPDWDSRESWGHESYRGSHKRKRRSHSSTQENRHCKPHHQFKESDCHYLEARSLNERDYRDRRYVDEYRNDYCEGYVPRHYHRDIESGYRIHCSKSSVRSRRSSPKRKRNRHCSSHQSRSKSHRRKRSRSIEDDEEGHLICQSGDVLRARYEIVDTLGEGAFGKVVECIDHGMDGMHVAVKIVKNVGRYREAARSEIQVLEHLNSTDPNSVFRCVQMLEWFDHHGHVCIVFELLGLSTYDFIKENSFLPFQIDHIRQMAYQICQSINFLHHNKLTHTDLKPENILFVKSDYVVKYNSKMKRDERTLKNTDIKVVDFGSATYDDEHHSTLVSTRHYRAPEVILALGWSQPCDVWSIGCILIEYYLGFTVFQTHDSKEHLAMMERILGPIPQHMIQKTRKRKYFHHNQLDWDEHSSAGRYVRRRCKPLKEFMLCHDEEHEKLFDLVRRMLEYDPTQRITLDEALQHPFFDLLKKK

Regarding `CC(=O)Nc1cc(Cl)cc(Nc2nc(NC3CCCCC3N)nc3c2ncn3C(C)C)c1` (racemic) [Compound 15, Racemic N-Cis(3-((2-((2-Aminocyclohexyl)Amino)-9-Isopropyl-9H-Purin-6-Yl)Amino)-5-Chlorophenyl)Acetamide], the IC50 in experiment [1] is 930 nM; in experiment [2] it was > 1000 nM; in [4] (setting [10]), 19 nM; in [5], > 1000 nM; in [6] it was 64 nM; in experiment [7] (enzyme inhibition, radiometric, ATP 90 μM, read-out: IC50 (nM) CLK3), > 1000 nM. For the same compound, 13 nM corresponded to half-maximal inhibition in experiment [8] (IC50). Besides, the “activity in the Rh-18 MDM2 RT-PCR gel-based confirmatory assay” value in experiment [3] is on record as “confirmation”. Further, the “luciferase response (Luc fold) in the MDM2-Luc reporter assay” value in experiment [9] (compared with less potent CLK inhibitors of the series) is reported as “stronger luciferase response”. The MDM2/Luc result in [9] was “Active”. Moreover, in experiment [9] (result in words, no concentration stated), the MDM2-Luc activity result is “strong MDM2-Luc activity”.

Regarding `CC(C)[C@H](CO)Nc1nc(Nc2cc(N)cc(Cl)c2)c2ncn(C(C)C)c2n1` [Aminopurvalanol A, reference compound], the “activity in the Rh-18 MDM2 RT-PCR gel-based confirmatory assay” value in experiment [3] is listed as “clear activity”.

Regarding `CCn1cnc2c(Nc3cccc(Cl)c3)nc(N[C@H]3CCCC[C@@H]3N)nc21` [Compound 6, N^2-((1 S,2S)-2-Aminocyclohexyl)-V-(3-Chlorophenyl)-9-Ethyl-9H-Purine-2,6-Diamine], the 50% inhibitory concentration (IC50) in experiment [1] is > 1000 nM; in experiment [2], > 1000 nM; in experiment [4] (setting [10]) it was 371 nM; in experiment [5] it was > 1000 nM; in experiment [6] it was 498 nM; in experiment [7], > 1000 nM. The compound further returned an IC50 in [8] of 190 nM. In addition, the MDM2/Luc result in experiment [9] was “Active”.

As for `CCn1cnc2c(Nc3cccc(Cl)c3)nc(NC3CCCCC3N)nc21` (racemic) [CGP-74514A (1), Racemicm-(Cis-2-Aminocyclohexyl)-N-(3-Chlorophenyl)-9-Ethyl-9H-Purine-2,6-Diamine, reference compound], the IC50 is 573 nM in experiment [1]; > 1000 nM in [2]; 148 nM in experiment [4]; 382 nM in [5]; 104 nM in [6]; > 1000 nM in experiment [7]. Also, the IC50 in experiment [8] was found to be 111 nM. The “activity in the Rh-18 MDM2 RT-PCR gel-based confirmatory assay” value in experiment [3] is recorded as “clear activity”. The MDM2/Luc result in [9] is recorded as “Active”.

For the origin of these results see patent US10722515B2, “Dual CLK/CDK1 inhibitors for cancer treatment” (SRI INTERNATIONAL, priority 2016, dated 2020).
